# Tests used:
# LFA-1 = target: T1, LFA-1 (Mus musculus, UniProt P24063); details: oral; cited from earlier work
# T1 construct: host or cells: mouse, in vivo
# CD56+CD8+ cells = experiment: flow cytometric conjugate formation assay of CD56+CD8+ cells and HL60 cells; type: cell-based, human; details: chemicals 10 μM 30 min prior to ICAM-2 10 μg/ml 30 min
# Experimental: A) Conjugate formation of CFSE labeled HL60, cells and CD56^+, CD8^+, cells. Conjugate flow cytometric based assay was performed on PBMC treated with indicated chemicals (10, μM, 30, min) prior to treatment with ICAM-2, (10, μg/ml, 30, min). CFSE labeled HL60, cells were incubated at 25:1, E:T ratio for 5, min, and fixed with 1% paraformaldehyde. Cells were then immunolabeled with CD8 and CD56, antibodies, gated for CD8^+, CD56^+, cell populations and percent HL60, fluorescence was made relative to total HL60, cells. B) IL-2, activated PBMC were either treated with ICAM-2, (10 μg/ml, 30, min) or mock-treated (IgG) and stained for active-LFA-1, (mAb24-Alexa633), phospho-p44/42-Ax488, CD8-CY5PE, and CD56-PE.
# Target cell lysis was measured by flow cytoemtric based detection of CFSE labeled HL60 cells. HL60 cells were labeled with 1 μg of CFSE (30 min, 37° C.). […] Percent specific lysis was calculated by the following equation: % specific lysis=100-100×(experimental HL60 count/total control HL60 count). HL60 counts were detectable by the CFSE fluorescence. Percent perforin was calculated by the following equation: % perforin=100×[(experimental perforin MFI−isotype mAb MFI)/(total perforin MFI−isotype mAb MFI)]. […] Cell conjugates were determined by flow cytometry as described (Morgan et al., 2001). […]
# NIH3T3 = experiment: staurosporine induced apoptosis in ICAM-2 transduced NIH3T3 (annexin-V binding, BrdU TUNEL); type: cell-based, murine; details: for effect on ICAM-2 anti-apoptotic effect, other kinase inhibitors: cell type not stated, data not shown
# Experimental: A) Pharmacological inhibitors of PI3K abrogate ICAM-2's anti-apoptotic. ICAM-2, or vector transduced BaF3, cells were treated with staurosporine (1, μM) with (unfilled) or without (filled) the addition of 100, nM wortmannin for 24, hours (left bar graph). Apoptosis was determined by nuclear staining and fluorescence microscopy (left bar graph) and by annexin-V binding assay (right bar graph). The proportion of apoptotic cells in each culture without staurosporine was 8%+/−2. The percentage of apoptotic cells is expressed as the mean (bar)+SD of triplicate cultures. ICAM-2, 1CAM2-AC, or vector transduced NIH3T3, were treated with staurosporine ([…]) in the presence or absence of 10, μM LY294002, for 24, hours (right bar graph). DMSO vehicle served as negative control. The percentage of apoptotic cells is expressed as the mean (bar)+/−SD of triplicate cultures. B) Confocal images of PI3K and AKT localization in ICAM-2, (top) or vector control cells (bottom). C) Confocal images of ezrin and the p85, subunit of PI3K (green) localization in ICAM-2, (top) or vector control cells (bottom).
# A) The anti-apoptotic effect of ICAM-2, is both wortmannin and LY294002, sensitive. ICAM-2, or vector transduced BaF3, cells were treated with staurosporine (1, μM) with (unfilled) or without (filled) the addition of 100, nM wortmannin for 24 hours. Apoptosis was determined by nuclear staining and fluorescence microscopy (left bar graph) and by annexin-V binding assay (right bar graph). The proportion of apoptotic cells in each culture without staurosporine was 8%±2. The percentage of apoptotic cells is expressed as the mean (bar)±SD of triplicate cultures. ICAM-2, ICAM2-ΔC, or vector transduced NIH3T3, were treated with staurosporine (1, μM) in the presence or absence of 10, μM LY294002, for 24, hours. DMSO vehicle served as negative control. The percentage of apoptotic cells is expressed as the mean (bar)±SD of triplicate cultures. B) ICAM-2, expressing NIH3T3, cells are sensitive to apoptosis in the presence of PI3K inhibitor LY294002. BrdU TUNEL assay was performed in staurosporine (1, μM) or LY294002, (10, μM) treated ICAM-2, ICAM2-ΔC, and control vector transduced NIH3T3, cells. The percentage of apoptotic cells is expressed as the mean (bar)±SD of triplicate cultures.
# Apoptosis was determined either by counting pyknotic nuclei, annexin-V binding by flow cytometry, or TUNEL BrdU staining by flow cytometry as indicated. Apoptosis was induced either by staurosporine (1 μm), treatment with anti-mouse Fas (5 μq/ml Santa Cruz Biotechnology (SCB), […] Fas (5 μg/ml Jo2 Biomed) or anti-human Fas (10 ng/ml CH11 Kamiya Biomedical) as indicated in appropriate experiment, IL-3 withdrawal-(24 hrs) or as indicated. For pyknolic nuclei count, NIH3T3 cells were grown on glass coverslips and assayed for apoptosis. Suspension cells were analyzed by nuclear staining with 25 μM acridine orange/25 μm ethidium bromide or 5 μg/ml Hoechst 33342 (Molecular Probes, Eugene, Oreg.). Apoptosis was identified by the presence of characteristic pyknotic nuclei as described (Jacobson and Raff, 1995). At least 5 individual fields were photographed and counted using a Zeiss axioscope fluorescence microscope. For the survival assay 10^6 NIH3T3 cells were plated in 10 cm dishes and incubated overnight at 37° C. The cells were treated with 1 μM staurosporine for 24 hours. The cells were washed and cultured for 24 hours in complete medium. The cells were trypsinized and viable cells counted following trypan blue staining. Untreated cells were counted at the time of treatment. % survival represents (number of viable cells post-treatment)/(number of viable cells pretreatment). FACS based annexin-V-FITC/PI staining was done as described (PharMingen). TUNEL assay was performed as described by manufacturer of Apoptosis BrdU kit (Promega). […]
# NK leukemic cell line YT = details: cited from earlier work
# Pyk2 = experiment: sICAM-2 induced Pyk2 phosphorylation (phospho-tyrosine based ELISA, chemical genetic approach); type: cell-based; details: for sICAM-2 induced Pyk2 phosphorylation: phospho-tyrosine based ELISA
# Excerpt: (§1) E) depicts that LFA-1, induced phosphorylation of Pyk2, and Syk is dependent on PKC. We screened for the inhibition of sICAM-2, induced Pyk2, and Syk phosphorylation by chemical inhibitors to tyrosine kinases using a phospho-tyrosine based ELISA. Pyk2, phosphorylation was abrogated in the presence of PKC inhibitors bisindolymaleimide II (BIM II) and staurosporine (STP), in addition to tyrphostin A9, a specific Pyk2, inhibitor. a Pyk2, phosphorylation was also affected by inhibitors of phospholipase Cg (neomycin), inhibitors of Syk (piceatannol), and PKC inhibitor BIM I. Syk phosphorylation was completely abolished by inhibition of Pyk2, PLCg1, and strongly affected by PKC inhibitors. Thus, both Pyk2, and Syk phosphorylations were dependent on PKC activity, while Syk phosphorylation was additionally dependent on PLCg1, and Pyk2, activity. It was not possible to assess specific PKC isozymes by this method.
# (§2) A chemical genetic approach was undertaken to determine the hierarchy of PKC, Pyk2, PLCg1, and Syk activities in response to sICAM-2, stimulus by verifying phosphorylation status of each kinase in the presence of respective chemical inhibitors. Inhibition of PKC with BIM II abrogated phosphorylation of Pyk2, PLCg1, and Syk. Inhibition of PLCg1, by neomycin abrogated phosphorylation of Syk, with no inhibition observed for Pyk2. […] Thus, the upstream signaling events from LFA-1, to Raf-1, appear to involve PKC/Pyk2/PLCg1/Syk. […] We are currently pursuing these complexes in a separate study.
# Syk [1] = experiment: sICAM-2 induced Syk phosphorylation (phospho-tyrosine based ELISA, chemical genetic approach); type: cell-based; details: sICAM-2 stimulus
# Excerpt: as §1
# A chemical genetic approach was undertaken to determine the hierarchy of PKC, Pyk2, PLCg1, and Syk activities in response to sICAM-2, stimulus by verifying phosphorylation status of each kinase in the presence of respective chemical inhibitors. Inhibition of PKC with BIM II abrogated phosphorylation of Pyk2, PLCg1, and Syk. Inhibition of PLCg1, by neomycin abrogated phosphorylation of Syk, with no inhibition observed for Pyk2. […]
# PLCg1 = experiment: sICAM-2 induced PLCg1 phosphorylation (chemical genetic approach); type: cell-based; details: sICAM-2 stimulus
# Excerpt: as §2
# ezrin = experiment: phosphotyrosine-protein based elisa for ezrin tyrosine phosphorylation upon ICAM-2 ligation; type: cell-based, human; details: Jurkat cells
# Experimental: A) Expression levels of ICAM-2, vary across cell lines of different origins. Quantitative flow cytometry analysis was performed to assess the number of ICAM-2 surface molecules across transformed and untransformed fibroblasts, lymphocytes of T-cell and different B-cell differentiation states and myeloid lineages (see Material and Methods for elaboration). The number of surface molecules/cell is expressed as the mean (bar)+/−SD of triplicate experiments. B) Crosslinking of endogenous ICAM-2, induces ezrin tyrosine phosphorylation and enhanced ICAM-2, interaction. Jurkat cells were crosslinked for ICAM-2 using monoclonal antibody for the indicated times and subjected to immunoprecipitation/immunoblotting as indicated. C) Inhibition of ezrin phosphotyrosine by chemical inhibitors of src and Rho-dependent kinases. D) Ezrin phosphorylation and enhanced interaction with the p85, subunit of PI3K as a function of ICAM-2. Determined as described above. E) PDK-1, activity as a function of ICAM-2, ligation, as described above). F) PI3K and AKT localize to the membrane as a function of ICAM-2, ligation. Membrane/cytosolic fractionation was performed on ICAM-2, ligated Jurkat cells as a function of time and subjected to immunoblotting for PI3K and AKT.
# In order to identify upstream kineses capable of tyrosine phosphorylating ezrin as a function of ICAM-2 ligation, we developed a phosphotyrosine-protein based elisa to screen for the inhibition of ezrin tyrosine phosphorylation in vivo by various known inhibitors of protein kineses (Perez and Nolan, manuscript in preparation). […] Given the design of the screen to detect tyrosine residue phosphorylation, we speculate that activation of Rho-dependent processes may be a prerequisite for ezrin to be tyrosine phosphorylated by src (elaborated below).
# Syk [2] = details: cited from earlier work
# Raf and p44/42 MAPK = experiment: phospho-raf and phospho-p44/42 immunoblot kinase inhibitor screen after ICAM-2 stimulus; type: cell-based, human; details: compound 10 μM 30 min, then ICAM-2 10 μg/ml 30 min
# Experimental: Serum starved cells were treated with 10, μM of indicated compound 30, minutes prior to being ICAM-2, crosslinked for 30, minutes (10, μg/ml) and assessed for phosphorylated Raf and p44/42, MAPK using phospho specific antibodies in standard immunoblot procedures. Control IgG dissolved in 0.1% DMSO served as negative control. Blots are representative of triplicate experiments. […] Co-immunoprecipitation experiments were performed immunoprecipitating αL and β2, integrin and immunoblotting for the presence of SYK and PYK as a function of a stimulus for 30, minutes as indicated (antibodies used at 10, μg/ml, compounds used at 1, μM and control 19, served as negative control).
# A) Phospho-raf and phospho-p44/42, immunoblot inhibition profile by tyrosine kinase inhibitors. […] Cell lysates were immunoblotted for phospho-raf and phospho-p44/42. […] Phospho-specificity was determined by phospho-PykpY402, and phospho-syk (Tyr525/526) antibodies. […] Cells were treated and processed as above. Phospho-specific PKCα/βII, (Thr638) and the following antibodies were used; Pyk2, and Syk were first immunoprecipated, probed with anti-phosphotyrosine antibody (PY20), stripped and subsequently probed with indicated non-phospho specific antibody. Immunoblots are representative of triplicate experiments. […]
# T1 sequence (P24063 24-1162): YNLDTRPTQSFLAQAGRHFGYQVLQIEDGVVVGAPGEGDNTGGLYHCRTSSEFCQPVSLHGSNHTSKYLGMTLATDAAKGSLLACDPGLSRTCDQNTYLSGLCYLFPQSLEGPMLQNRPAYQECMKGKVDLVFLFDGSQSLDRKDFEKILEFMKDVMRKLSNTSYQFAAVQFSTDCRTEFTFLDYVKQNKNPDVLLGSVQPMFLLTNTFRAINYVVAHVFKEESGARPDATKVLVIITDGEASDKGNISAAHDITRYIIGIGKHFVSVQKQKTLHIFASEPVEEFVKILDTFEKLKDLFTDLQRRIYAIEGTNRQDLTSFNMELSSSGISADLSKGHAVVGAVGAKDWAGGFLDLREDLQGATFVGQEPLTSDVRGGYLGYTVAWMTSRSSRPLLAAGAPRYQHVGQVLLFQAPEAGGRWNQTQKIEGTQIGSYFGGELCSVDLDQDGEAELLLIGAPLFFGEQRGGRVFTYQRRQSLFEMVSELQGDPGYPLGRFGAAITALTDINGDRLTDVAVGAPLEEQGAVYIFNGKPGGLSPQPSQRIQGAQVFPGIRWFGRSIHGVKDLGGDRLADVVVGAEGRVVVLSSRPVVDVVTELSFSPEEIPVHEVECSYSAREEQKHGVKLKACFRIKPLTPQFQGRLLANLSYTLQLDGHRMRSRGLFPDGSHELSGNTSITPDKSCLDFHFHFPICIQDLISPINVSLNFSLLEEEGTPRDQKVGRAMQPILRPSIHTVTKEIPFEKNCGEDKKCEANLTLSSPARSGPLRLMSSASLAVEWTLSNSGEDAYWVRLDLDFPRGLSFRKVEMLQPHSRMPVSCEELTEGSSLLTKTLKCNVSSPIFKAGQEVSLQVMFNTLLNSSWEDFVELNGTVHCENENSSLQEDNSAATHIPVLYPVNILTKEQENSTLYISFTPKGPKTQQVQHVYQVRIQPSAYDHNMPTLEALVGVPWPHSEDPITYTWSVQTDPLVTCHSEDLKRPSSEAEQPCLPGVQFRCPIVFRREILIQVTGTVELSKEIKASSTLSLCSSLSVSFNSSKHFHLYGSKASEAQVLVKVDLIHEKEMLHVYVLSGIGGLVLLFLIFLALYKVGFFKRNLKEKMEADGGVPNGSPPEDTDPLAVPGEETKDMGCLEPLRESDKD
# T1 sequence (P11835 24-771 partner): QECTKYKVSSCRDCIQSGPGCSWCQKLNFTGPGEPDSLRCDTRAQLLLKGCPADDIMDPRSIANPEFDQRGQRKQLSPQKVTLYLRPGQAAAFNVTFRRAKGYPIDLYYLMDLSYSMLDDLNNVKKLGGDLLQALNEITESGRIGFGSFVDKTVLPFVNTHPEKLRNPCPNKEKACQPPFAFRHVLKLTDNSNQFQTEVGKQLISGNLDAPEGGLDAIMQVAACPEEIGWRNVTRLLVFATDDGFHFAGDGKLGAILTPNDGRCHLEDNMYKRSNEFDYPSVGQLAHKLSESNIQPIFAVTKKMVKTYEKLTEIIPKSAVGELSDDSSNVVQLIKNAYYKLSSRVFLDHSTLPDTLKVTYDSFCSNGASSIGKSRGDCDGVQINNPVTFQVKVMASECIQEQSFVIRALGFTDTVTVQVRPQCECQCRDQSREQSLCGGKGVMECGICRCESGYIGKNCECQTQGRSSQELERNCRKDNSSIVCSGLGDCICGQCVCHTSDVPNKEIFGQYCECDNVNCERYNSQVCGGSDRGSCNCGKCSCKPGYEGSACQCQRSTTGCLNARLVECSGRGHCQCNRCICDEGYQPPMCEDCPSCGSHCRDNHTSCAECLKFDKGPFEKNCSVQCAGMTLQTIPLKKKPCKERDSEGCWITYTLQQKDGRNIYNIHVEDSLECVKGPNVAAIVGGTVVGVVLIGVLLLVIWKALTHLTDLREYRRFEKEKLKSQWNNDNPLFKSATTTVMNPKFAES
compound,measurement,setting,value
CC[C@H](C)C(=O)O[C@H]1C[C@@H](C)C=C2C=C[C@H](C)[C@H](CC[C@H]3C[C@@H](O)CC(=O)N3Cc3ccc4c(CO)c(OC)ccc4c3)[C@H]21 [LFA703],inflammatory response,LFA-1,suppressed the inflammatory response
COc1cccc(-c2cc(=O)c3ccccc3o2)c1N [PD98059],effector-target (E:T) conjugate formation,CD56+CD8+ cells,did not
same,"effect on ICAM-2 anti-apoptotic effect, other kinase inhibitors",NIH3T3,not abrogated
same,perforin redistribution,NK leukemic cell line YT,inhibits perforin redistribution to the site of effector-target cell contact
CN1CCCC1CCn1cc(C2=C(c3c[nH]c4ccccc34)C(=O)NC2=O)c2ccccc21 (centres unmarked) [bisindolymaleimide II],phosphorylation of Pyk2,"Pyk2; chemical genetic approach, sICAM-2 stimulus",abrogated
same,sICAM-2 induced Pyk2 phosphorylation,Pyk2,abrogated
same,phosphorylation of Syk,Syk [1],abrogated
same,phosphorylation of PLCg1,PLCg1,abrogated
same,ICAM-2 induced survival signal,"NIH3T3; PKC isozyme inhibitors, system not specified",did not abrogate
same,"effect on ICAM-2 anti-apoptotic effect, other kinase inhibitors",NIH3T3,not abrogated
same,tyrosine phosphorylation of ezrin,ezrin,minor affects
Oc1cc(O)cc(/C=C/c2ccc(O)c(O)c2)c1 [piceatannol],natural cytotoxicity,Syk [2],inhibits natural cytotoxicity
CC(C)(C)c1cc(C=C(C#N)C#N)cc(C(C)(C)C)c1O [tyrphostin A9],effect on ICAM-2 induced activation of Raf and p44/42 MAPK,Raf and p44/42 MAPK,abrogated
same,sICAM-2 induced Pyk2 phosphorylation,Pyk2,abrogated

# From patent US8962263B2, “Methods and compositions for detecting the activation state of multiple proteins in single cells” (The Board of Trustees of the Leland Stanford Junior …, priority 2001, dated 2015)
